Source: EP0626943B1, “BISTRIAZENES AS CHEMOTHERAPEUTIC AGENTS” (THE GOVERNMENT OF THE UNITED STATES OF AMERICA as …, priority 1991, dated 1993)
Read-outs that look alike come from different tables or passages of the source.

Assays:
human tumor cell lines = experiment: Clonogenic assay against a panel of human tumor cells (Figures 1-4); assay type: cell-based; conditions: for cytotoxicity, overall statement: clonogenic assay, no concentration given
Description: Clonogenic Assay. The response of a variety of human tumor cell lines to bistriazenes was determined via the clonogenic assay described in Fiebig et al. (1987) European Journal of Cancer and Clinical Oncology 23: 937-948.
(§1) Briefly, the assay system consists of a modified, two-layer soft agar culture system. The bottom layer consists of 1 ml of modified Dulbecco medium supplemented with L-glutamine, containing 10% fetal calf serum and 0.5% agar, in a 35 mm petri-dish. The upper layer contains 2-5 x 10^5 viable human tumor cells suspended in a 1 ml volume, consisting of 0.3% agar, 30% fetal calf serum, and the medium. The drugs to be tested, contained in 1 ml of medium containing 30% fetal calf serum, are included in the upper layer. Control plates are identical, except for the omission of the drugs. The plates are incubated at 37°C in a humidified atmosphere containing 7% carbon dioxide for varying periods (7-21 days). The time in culture is determined by the rate of colony formation in the control plates. At the end of the culture period, the number of colonies in the drug treated cultures is compared to the number of colonies in the control plates, after visualization of the live colonies by staining with tetrazolium chloride.
The tumors included those derived from colon cancer, three types of lung cancer, mammary cancer, ovarian cancer, two types of kidney cancer, a mesothelioma, a gastric cancer, and a sarcoma. These tumors represent some of the most important cancers for which current treatments are inadequate. For comparison, the assays of the various bistriazenes were compared to the response induced in the same tumors by DTIC, a drug employed in clinical practice.

[1] = test system: 32P-endlabeled oligonucleotide; experiment: Oligonucleotide crosslinking assay; assay type: biochemical; conditions: 37°C, 42 hours, pH 7.4
Description: A solution of 6.2 ng of ^32P-endlabeled oligonucleotide in 0.1 M cacodylic acid buffer (0.1 M NaCl, pH 7.4) was allowed to react with the desired compound dissolved in 1/10 volume DMSO. Final concentrations of the compounds in the oligonucleotide solution were 0.1 mM NMUST, 1.0 mM CCNU, or 10 mM bistriazene. Reactions were incubated at 37°C for 42 hours, and analyzed by denaturing polyacrylamide gel electrophoresis (20% gel) followed by autoradiography. the gels were intentionally overexposed to better visualize bands corresponding to interstrand crosslinks. Large amounts of unreacted oligonucleotides were also visualized under these conditions.

RXF 1220 = experiment: Clonogenic assay (two-layer soft agar culture); assay type: cell-based; conditions: Homo sapiens, read-out: Test/Control (%) at Drug Concentration (µg/ml)
Description: as §1

PRCL DU145X = experiment: Clonogenic assay (two-layer soft agar culture); assay type: cell-based; conditions: Homo sapiens, read-out: Test/Control (%) at Drug Concentration (µg/ml)
Description: as §1

LXFL 529 = experiment: Clonogenic assay (two-layer soft agar culture); assay type: cell-based; conditions: Homo sapiens
Description: as §1

[2] = Solubility observed on isolation; assay type: physicochemical
Description: A solution of 3.95 g (25 mmoles) of 2-bromopyridine in 20 ml of dry pentane was added dropwise to 10 ml. of 2.5M butylithium in hexane at -78°C. To the resulting yellow slurry was added dropwise with stirring 1.75 g (12.5 mmoles) of 1,4-diazidobutane in 10 ml. of pentane. Stirring was continued for 2 hr. at -78° and then the reaction mixture was allowed to warm to room temperature. The reaction mixture was treated with 60 ml. of ammonium buffer which caused a precipitate to appear after the reaction was cooled to -78°C. The solid was filtered off. […] The yield was 2.3 g., m.p. 133-136. Spectroscopic data were consistent with the structure.
A solution of butyllithium in hexane (5 ml., 2.5M) was dissolved in 10 ml. of tetrahydrofuran and cooled to -78°C. To this was added dropwise with stirring a solution of 1.98 g (12.5 mmoles) of 2-bromopyridine in 10 ml. of tetrahydrofuran. The dark yellow solution of the pyridine anion was mixed with a solution of 0.70 g (6.2 mmoles) of 1,2-diazidoethane in 10 ml. of tetrahydrofuran at -78°C. After 1 hr. of stirring the dark green solution was treated with 10 ml. of ammonium buffer. The color changed to yellow. The organic solvent was removed in vacuo, and the precipitate was isolated by filtration and washed with copious quantities of diethylether. The powdery material was finally dried under high vacuum. The yield was 770 mg. […] The spectra, however, were fully consistent with the structure.

[3] = 1 ug/ml, panel of human tumor cell lines
[4] = 10 ug/ml, panel of human tumor cell lines
[5] = 100 ug/ml, panel of human tumor cell lines
[6] = 1.0 µg/ml, RXF 1220 renal carcinoma
[7] = 10.0 µg/ml, RXF 1220 renal carcinoma
[8] = 100.0 µg/ml, RXF 1220 renal carcinoma
[9] = 1.0 µg/ml, PRCL DU145X prostate carcinoma
[10] = 10.0 µg/ml, PRCL DU145X prostate carcinoma
[11] = 100.0 µg/ml, PRCL DU145X prostate carcinoma
[12] = 1.0 µg/ml, LXFL 529 large cell lung cancer line, read-out: Test/Control (%) at Drug Concentration (µg/ml)
[13] = 10.0 µg/ml, LXFL 529 large cell lung cancer line, read-out: Test/Control (%) at Drug Concentration (µg/ml)
[14] = 100.0 µg/ml, LXFL 529 large cell lung cancer line, read-out: Test/Control (%) at Drug Concentration (µg/ml)
[15] = LXFL 529, read-out: Test/Control (%) at Drug Concentration (µg/ml)

Row | Structure (SMILES) | cytotoxic activity (human tumor cell lines; [4]) | cytotoxic activity (human tumor cell lines; [5]) | cytotoxicity, overall statement (human tumor cell lines) | activity at 1 µg/mL (RXF 1220; [6]) [%] | activity at 10 µg/mL (RXF 1220; [7]) [%] | activity at 100 µg/mL (RXF 1220; [8]) [%] | activity at 1 µg/mL (PRCL DU145X; [9]) [%] | activity at 10 µg/mL (PRCL DU145X; [10]) [%] | activity at 100 µg/mL (PRCL DU145X; [11]) [%] | activity at 1 µg/mL (LXFL 529; [12]) [%] | activity at 10 µg/mL (LXFL 529; [13]) [%] | activity at 100 µg/mL (LXFL 529; [14]) [%] | other results
1 | CNN=NC/C=C/CN=NNC [1,4-bis(methyltriazeno)-trans-2-butene, 1,4-Bis(methyltriazeno)-trans-2-butene] | activity persisted at 10 ug/ml, especially for the large cell lung carcinoma LXFL529 and the renal cancer RXF423/17 | potent cytotoxic activity against all the tumors tested | highly potent against several tumors, especially the large cell lung carcinoma | – | – | – | – | – | – | – | – | – | cytotoxic activity (human tumor cell lines; [3]): still significant activity against the lung cancer; interstrand crosslinking of oligonucleotides ([1]; 10 mM bistriazene): produce stable crosslinked species in oligonucleotides
2 | c1cncc(N=NNCCCCNN=Nc2cccnc2)c1 [Example 1b] | – | – | potently cytotoxic | 82 | 70 | 8 | 94 | 62 | 4 | 71 | 1 | 1 | –
3 | CN(C)N=Nc1[nH]cnc1C(N)=O [DTIC, 5-(3,3-dimethyltriazeno)imidazole-4-carboxamide, reference compound] | – | – | – | 54 | 44 | 24 | 70 | 44 | 43 | 63 | 35 | 8 | cytotoxic activity (human tumor cell lines; 3 ug/ml, panel of human tumor cell lines): marginal activity against the gastric cancer; cytotoxic activity (human tumor cell lines; 30 ug/ml, panel of human tumor cell lines): activity against the gastric carcinoma GXF251/16 and the ovarian cancer OVXF899/9; cytotoxic activity (human tumor cell lines; 300 ug/ml, panel of human tumor cell lines): potently cytotoxic on all cell lines
4 | c1ccc(NN=NCCN=NNc2ccccn2)nc1 [compound 15, 1,2-Bis(2-pyridyltriazeno)ethane] | – | – | – | – | – | – | – | – | – | – | – | – | solubility ([2]; common solvents): not soluble in most solvents, except dimethylsulfoxide
5 | O=NN(CCCl)C(=O)NC1CCCCC1 [CCNU, 1-(2-chloroethyl)-3-cyclohexyl-1-nitrosourea, reference compound] | – | – | – | – | – | – | – | – | – | – | – | – | interstrand crosslinking of oligonucleotides ([1]; 1.0 mM CCNU): not as effective at forming crosslinks as the p-xylyl bistriazene derivative
6 | c1cncc(N=NNCCNN=Nc2cccnc2)c1 [Example 1a, bis(3-pyridyltriazeno)ethane] | – | – | potently cytotoxic | 99 | 74 | 4 | 84 | 44 | 0 | 51 | 0 | 0 | –
7 | CNN=NCc1ccc(CN=NNC)cc1 [bis(methyltriazeno)-p-xylene, 1,4-Bis(methyltriazenomethyl)benzene] | toxicity against approximately half of the cell lines examined | highly toxic to all tumor cell lines | – | – | – | – | – | – | – | – | – | – | cytotoxic activity (human tumor cell lines; [3]): Some activity was also evident at a dose of 1 ug/ml in about half the cell lines; interstrand crosslinking of oligonucleotides ([1]; 10 mM bistriazene, listed as p-xylyl): produce stable crosslinked species in oligonucleotides; interstrand crosslinking of oligonucleotides ([1]; 10 mM bistriazene, listed as p-xylyl bistriazene): stably covalently crosslinked
8 | O=P1(N(CCCl)CCCl)NC(OO)CCO1 (stereo not shown) [CYCM, 4-hydroperoxycyclophosphamide, reference compound] | – | – | – | – | – | – | – | – | – | – | – | – | activity at 1 µg/mL (RXF 1220): 67%; activity at 10 µg/mL (RXF 1220): 51%; activity at 100 µg/mL (RXF 1220): 9%; activity at 1 µg/mL (PRCL DU145X): 108%; activity at 10 µg/mL (PRCL DU145X): 90%; activity at 100 µg/mL (PRCL DU145X): 47%; activity at 1 µg/mL (LXFL 529; [15]): 115%; activity at 10 µg/mL (LXFL 529; [15]): 94%; activity at 100 µg/mL (LXFL 529; [15]): 19%
9 | c1ccc(NN=NCCCCN=NNc2ccccn2)nc1 [compound 14, 1,4-Bis(2-pyridyltriazeno)butane] | – | – | – | – | – | – | – | – | – | – | – | – | solubility ([2]; common solvents): poorly soluble in common solvents such as halomethanes, acetone, methanol and water; solubility ([2]; dimethylsulfoxide): sparingly soluble
10 | CNN=NCCN=NNC [bis(methyltriazeno)ethane, 1,2-Bis(methyltriazeno)ethane] | only marginal, but significant, activity was seen in the large cell lung cancer and in the mammary cancer | highly cytotoxic at 100 ug/ml to most of the tumor cell lines | – | – | – | – | – | – | – | – | – | – | cytotoxic activity (human tumor cell lines; 100 ug/ml, mesothelioma, gastric carcinoma, renal cancer RXF 423/17): Relatively little or no activity
